The values that follow come from article PMC3112094, “Pro-apoptotic activity of α-bisabolol in preclinical models of primary human acute leukemia cells” (Journal of Translational Medicine, 2011).

For one series, the system named is leukemic blasts. The experiment in a line: PARP cleavage (Western blot) and DNA ladder. In kind it is cell-based, human. The conditions noted are these: blasts of case Ph^-B-ALL #01 after α-bisabolol exposure. As for the experimental part:
Cells were homogenized at 4°C in 50 mM Tris-HCl (pH 8) containing 0.1% Nonidet-P40 (NP-40), 200 mM KCl, 2 mM MgCl2, 50 μM ZnCl2, 2 mM DTT, and protease inhibitors [1 mM phenylmethylsulfonyl fluoride (PMSF), 1 mg/mL leupeptin, and 1 mg/mL antipain]. Aliquots of the homogenates (40 μg total protein/lane) were loaded on SDS-polyacrylamide gels at the appropriate concentrations. Electrophoresis was performed at 100 V with a running buffer containing 0.25 M Tris-HCl (pH 8.3), 1.92 M glycine, and 1% SDS. The resolved proteins were electroblotted onto a nitrocellulose membrane using the iBlot™ system (Invitrogen, Carlsbad, CA). Membranes were then incubated with a mouse monoclonal IgG antibody to poly(ADP-ribose) polymerase (PARP) (Zymed, South San Francisco, CA), with a rabbit polyclonal IgG antibody to BID (Cell Signaling Technology, Danvers, MA) or with a rabbit polyclonal IgG antibody to α-tubulin (Cell Signaling Technology). The membranes were then washed and incubated with an anti-mouse or anti-rabbit IgG peroxidase-conjugated antibody (Cell Signaling Technology). The blots were washed again and then incubated with enhanced chemiluminescent detection reagents (Immun-Star™ WesternC™ Kit, Bio-Rad, Hercules, CA) according to the manufacturer's instructions. Proteins were detected using the ChemiDoc XRS Imaging System (Bio-Rad). […]
For orientation: Immunoblotting shows a protein as a band on a membrane.

For series [1], the system named is primary acute leukemia cells. Put plainly: cells. In kind it is cell-based, human. The conditions noted are these: for IC50: Homo sapiens, 24 h. As for the experimental part:
(§1) Cells derived from patients or normal donors were exposed for 24 hours to 20, 40, 80, and 160 μM α-bisabolol dissolved in ethanol (1:8 in order to minimize drug volumes), and when appropriate to 3 μM imatinib mesylate (Novartis, Basel, CH), representative of the in vivo active concentration. All cytotoxicity tests were performed in triplicate.
A lactate dehydrogenase (LDH) release assay was conducted as follows. Thawed cells were resuspended in RPMI-1640 (Lonza, Basel, CH) supplemented with 10% heat-inactivated fetal bovine serum (FBS, Lonza), 50 U/mL penicillin and 50 μg/mL streptomycin (complete medium, CM), seeded at a density of 2 × 10^6 cell/mL and incubated at 37°C in 5% CO2. After 24 hours, the cells were treated with α-bisabolol (or ethanol as a vehicle control) as specified above. Cytotoxicity was determined using the Cytotoxicity Detection Kit^PLUS according to the manufacturer's recommendations (Roche, Mannheim, DE). LDH leakage was measured as the ratio of treatment-induced LDH to spontaneous LDH release. α-bisabolol and imatinib mesylate data were reported as the percent cytotoxicity for treated compared to untreated cells and plotted as dose-response curves over 24 hours. The half maximal inhibitory concentration (IC50) was determined when appropriate.
To generate a classification based on α-bisabolol sensitivity, samples were grouped using the complete linkage hierarchical clustering algorithm available in the MultiExperiment Viewer (MeV, version 4.3 - http://www.tm4.org/mev/). A heat map for sensitivity was derived using the percentage data for mortality after adding α-bisabolol with respect to spontaneous mortality at the same time.
(§2) Student's t-test for means, chi-squared tests, Mann-Whitney U test and Kruskall-Wallis analysis of variance by ranks were considered significant for p values < 0.05.

On the set-up of series [2]: method as in PMID 14975741. The note with it: previous studies ref 1; cited from earlier work.
For another series, the system named is CD34^+ cells. The experiment in a line: Cytotoxicity in normal bone marrow cells, TruCOUNT flow cytometry. It is filed as cell-based, human. The conditions noted are these: for cytotoxicity: 24 hours, mean ± SD; for IC50: Homo sapiens, Bone marrow cell, 24 h, 24-hour. As for the experimental part:
(§3) Viable peripheral blood leukocytes and bone marrow cells from - 4 - control donors were treated and used as specified above for leukemic cells.
as §1
(§4) The absolute counts of normal leukocytes sub-populations were measured with TruCOUNT tubes (Becton Dickinson, San Jose, CA) by polychromatic flow cytometry according to the manufacturer's instructions with minor modifications. Peripheral blood and bone marrow cells were cultured with α-bisabolol for 24, 48, 72, 96 and 120 hours. At the end of the culture, 200 μL of sample, a mixture of antibodies (CD45 APC-H7, CD3 PE-Cy7, CD19 PE, CD14 APC for peripheral blood and CD45 APC-H7, CD34 PE, CD33 PE-Cy7 for bone marrow) and 7-amino-actinomycin D (all reagents from Becton Dickinson) for dead cells exclusion were added to the TruCOUNT tubes. After a 15-minute incubation at room temperature, 1 mL lysing reagent (Biosource, Nivelles, BE) was added for 10 minutes. A total of 40,000 beads were acquired on a FACSCanto cytometer (Becton Dickinson). A sequential Boolean gating strategy was used to accurately enumerate different populations.
as §2
On the technique in general: A flow cytometer gives signals particle by particle.

The next series deals with CD33^+my cells. Described as above. The note with it: 5 normal bone marrow samples; for cytotoxicity: 24 hours, mean ± SD. In kind it is cell-based, human. As for the experimental part: as §3, §1, §4, §2
In the next series the test system is mammary tumor masses. Also on record: method as in PMID 20524399. The note with it: HER-2 transgenic mice, 10 mg/mouse ref 2; cited from earlier work.

For orientation: IC50 means the concentration that gives 50% inhibition. `CC(C)=CCC[C@](C)(O)[C@@H]1CC=C(C)CC1` [α-bisabolol]: the “PARP cleavage and DNA laddering” value with leukemic blasts was “underwent PARP cleavage and DNA laddering”. Further, the “responsiveness of all leukemia cases” value in series [1] (65 μM α-bisabolol for 24 hours) is on record as “eventually responsive”. Further, the IC50 in series [1] (cluster 1, n 8, 24-hour) turned out to be 14 ± 5 µM; in series [1] (cluster 2, n 19, 24-hour) it was 45 ± 7 µM; in series [1] (cluster 3, 15 acute leukemia samples, 24-hour), 65 ± 5 µM; in series [1] (cluster 3, 17: 15 acute leukemias plus CD34^+ and CD33^+my samples, 24-hour), 64 ± 5 µM; with CD34^+ cells (CD34^+, 5 normal bone marrow samples), 62 ± 9 µM; in the series on CD34^+ cells (CD34^+/19^+ cells, normal bone marrow) it was 63 ± 4 µM. The IC50 came out at 64 ± 6 µM in the series on CD34^+ cells (CD34^+/33^+ cells, normal bone marrow) and 95 ± 7 µM in the series on CD33^+my cells (Homo sapiens, Bone marrow cell, 24-hour). In series [2], the solubility fraction was 2.5%. Moreover, the cytotoxicity with CD34^+ cells (CD34^+, 5 normal bone marrow samples, 20 μM α-bisabolol) amounted to 1 ± 2%; in the series on CD34^+ cells (CD34^+, 5 normal bone marrow samples, 40 μM α-bisabolol), 22 ± 19%; in the series with CD34^+ cells (CD34^+, 5 normal bone marrow samples, 80 μM α-bisabolol) it was 72 ± 35%; in the series with CD34^+ cells (CD34^+, 5 normal bone marrow samples, 160 μM α-bisabolol), 98 ± 1%; with CD33^+my cells (20 μM α-bisabolol) it was 2 ± 2%; in the series with CD33^+my cells (40 μM α-bisabolol) it was 4 ± 3%. The cytotoxicity with CD33^+my cells (80 μM α-bisabolol) worked out at 40 ± 39%; in the series with CD33^+my cells (160 μM α-bisabolol), 99 ± 1%. The “effect on palpable mammary tumor masses” value in the series with mammary tumor masses is on record as “decrease in the number of palpable mammary tumor masses”.
